From patent US7105531B2, “Tricyclic protein kinase inhibitors” (WYETH, priority 1999, dated 2006)

Row | melting point | SMILES
1 | > 300 °C | COc1cc2cc3c(Nc4ccc(Sc5nccn5C)c(Cl)c4)c(C#N)cnc3cc2cc1OCCCCl [Example 150, 4-[3-Chloro-4-(1-methyl-1H-imidazol-2-ylsulfanyl)phenylamino]-8-(3-chloropropoxy)-7-methoxybenzo[g]quinoline-3-carbonitrile]
2 | 251 to 253 °C | COc1cc2cc3ncc(C#N)c(Nc4ccc(Oc5ccccc5)c(Cl)c4)c3cc2cc1OCCN1CCOCC1 [Example 214, 4-(3-Chloro-4-phenoxyphenylamino)-8-methoxy-7-(2-morpholin-4-yl-ethoxy)benzo[g]quinoline-3-carbonitrile]
3 | 266 to 268 °C (dec.) | COc1cc(Nc2c(C#N)cnc3c2sc2ccc(N)cc23)c(C)cc1Cl [Example 76, 8-Amino-4-(4-chloro-5-methoxy-2-methylanilino)[1]benzothieno[3,2-b]pyridine-3-carbonitrile]
4 | 182 to 185 °C | COc1cc2cc3ncc(C#N)c(Nc4ccc(OCc5ccccc5)c(Cl)c4)c3cc2cc1OCCCl [Example 186, 4-(4-Benzyloxy-3-chlorophenylamino)-7-(2-chloroethoxy)-8-methoxybenzo[g]quinoline-3-carbonitrile]
5 | 129 to 130 °C | CCOc1cc2cc3c(Nc4cc(OC)c(Cl)cc4C)c(C#N)cnc3cc2cc1OCCCl [Example 179, 8-(2-Chloroethoxy)-4-(4-chloro-5-methoxy-2-methylanilino)-7-ethoxybenzo[g]quinoline-3-carbonitrile]
6 | 275 to 280 °C | COc1cc2cc3c(Nc4ccc(Sc5nccn5C)c(Cl)c4)c(C#N)cnc3cc2cc1OCCCl [Example 148, 8-(2-Chloroethoxy)-4-[3-chloro-4-(1-methyl-1H-imidazol-2-ylsulfanyl)phenylamino]-7-methoxybenzo[g]quinoline-3-carbonitrile]
7 | 115 to 119 °C (dec.) | COc1cc2cc3ncc(C#N)c(Nc4ccc(Cl)cc4Cl)c3cc2cc1OCCN1CCOCC1
8 | 175 to 179 °C | N#Cc1cnc2c(oc3ccccc32)c1Nc1ccc(Oc2ccccc2)cc1 [Example 88, 4-(4-Phenoxyphenylamino)benzo[4,5]furo[3,2-b]pyridine-3-carbonitrile]
9 | 240 to 242 °C | N#Cc1cnc2c(sc3ccccc32)c1Nc1cccc(Br)c1 [Example 65, 4-(3-Bromophenylamino)benzo[4,5]thieno[3,2-b]pyridine-3-carbonitrile]
10 | 242 to 245 °C | N#Cc1cnc2c(oc3ccccc32)c1Nc1cccc(Br)c1 [Example 85, 4-(3-Bromophenylamino)benzo[4,5]furo[3,2-b]pyridine-3-carbonitrile]
11 | 260 °C (dec.) | Cc1ccc(Nc2c(C#N)cnc3c2sc2ccccc23)cc1O [Example 70, 4-(3-Hydroxy-4-methylphenylamino)benzo[4,5]thieno[3,2-b]pyridine-3-carbonitrile]
12 | 190 to 194 °C | COc1cc2cc3c(Nc4ccc(Oc5ccccc5)c(Cl)c4)c(C#N)cnc3cc2cc1OCCN1CCOCC1 [Example 213, 4-(3-Chloro-4-phenoxyphenylamino)-7-methoxy-8-(2-morpholin-4-yl-ethoxy)benzo[g]quinoline-3-carbonitrile]
13 | 175 to 178 °C | COc1cc(Nc2c(C#N)cnc3c2C=C2N=C(NCCN4CCOCC4)N=C2C3)cc(OC)c1OC [Example 33, 2-{[2-(4-Morpholinyl)ethyl]amino}-8-(3,4,5-trimethoxyanilino)imidazo[4,5-g]quinoline-7-carbonitrile]
14 | 193 to 204 °C | COc1cc(Nc2c(C#N)cnc3cc4cc(OCCCl)c(OC)cc4cc23)c(Cl)cc1F [Example 180, 8-(2-Chloroethoxy)-4-(2-chloro-4-fluoro-5-methoxyanilino)-7-methoxybenzo[g]quinoline-3-carbonitrile]
15 | 257 to 260 °C (dec.) | Cc1ccc(Nc2c(C#N)cnc3c2C=C2N=CN=C2C3)cc1O [Example 41, 8-(3-Hydroxy-4-methylphenylamino)imidazo[4,5-g]quinoline-7-carbonitrile]
16 | 239 to 242 °C (dec.) | COc1cc2cc3c(Nc4cc(OC)c(F)cc4Cl)c(C#N)cnc3cc2cc1O [Example 220, 4-[(2-Chloro-4-fluoro-5-methoxyphenyl)amino]-8-hydroxy-7-methoxybenzo[g]quinoline-3-carbonitrile]
17 | > 260 °C | COc1ccc2cc3c(Nc4ccc(Cl)cc4Cl)c(C#N)cnc3cc2c1 [Example 104, 4-(2,4-Dichloroanilino)-8-methoxybenzo[g]quinoline-3-carbonitrile]
18 | 193 to 198 °C | COc1cc(Nc2c(C#N)cnc3cc4cc(OCCN5CCC(O)CC5)c(OC)cc4cc23)c(Cl)cc1Cl
19 | 240 to 241 °C | COc1cc(Nc2c(C#N)cnc3cc4cc(OC)c(OCCN5CCOCC5)cc4cc23)c(Cl)cc1C
20 | 267 to 269 °C | N#Cc1cnc2cc3cc(O)ccc3cc2c1Nc1ccc(Cl)cc1Cl [Example 106, 4-(2,4-Dichloroanilino)-8-hydroxybenzo[g]quinoline-3-carbonitrile]
21 | 234 to 236 °C | COc1cc(Nc2c(C#N)cnc3c2sc2ccccc23)c(Cl)cc1Cl [Example 68, 4-(2,4-Dichloro-5-methoxyphenylamino)benzo[4,5]thieno[3,2-b]pyridine-3-carbonitrile]
22 | 248 to 250 °C (dec.) | COc1cc(Nc2c(C#N)cnc3cc4cc(OCc5ccccc5)c(OC)cc4cc23)c(Cl)cc1F [Example 219, 8-(Benzyloxy)-4-[(2-chloro-4-fluoro-5-methoxyphenyl)amino]-7-methoxybenzo[g]quinoline-3-carbonitrile]
23 | 286 to 287 °C | C=CC(=O)Nc1cccc2c1sc1c(Nc3cccc(Br)c3)c(C#N)cnc12 [Example 94, N-[4-(3-Bromoanilino)-3-cyano[1]benzothieno[3,2-b]pyridin-6-yl]acrylamide]
24 | 184 to 186 °C | COc1cc2cc3c(Nc4ccc(Sc5nccn5C)c(Cl)c4)c(C#N)cnc3cc2cc1OCCN1CCN(C)CC1 [Example 152, 4-[3-Chloro-4-(1-methyl-1H-imidazol-2-ylsulfanyl)phenylamino]-7-methoxy-8-[2-(4-methylpiperazin-1-yl)ethoxy]-benzo[g]quinoline-3-carbonitrile]
25 | 230 to 235 °C | COc1cc2cc3c(Nc4ccc(Sc5nccn5C)c(Cl)c4)c(C#N)cnc3cc2cc1OCCCN1CCOCC1 [Example 151, 4-[3-Chloro-4-(1-methyl-1H-imidazol-2-ylsulfanyl)phenylamino]-7-methoxy-8-(3-morpholin-4-yl-propoxy)benzo[g]quinoline-3-carbonitrile]
26 | 286 to 288 °C | N#Cc1cnc2c(c1Nc1cccc(Br)c1)C=C1N=CN=C1C2 [Example 37, 8-(3-Bromo-phenylamino)imidazo[4,5-g]quinoline-7-carbonitrile]
27 | 256 to 258 °C | N#Cc1cnc2c(sc3c(N)cccc32)c1Nc1cccc(Br)c1 [Example 81, 6-Amino-4-(3-bromoanilino)[1]benzothieno[3,2-b]pyridine-3-carbonitrile]
28 | 210 to 213 °C | N#Cc1cnc2c(sc3ccc([N+](=O)[O-])cc32)c1Nc1ccc(Cl)cc1Cl [Example 90, 4-(2,4-Dichloroanilino)-8-nitro[1]benzothieno[3,2-b]pyridine-3-carbonitrile]
29 | > 300 °C | COc1cc2cc3c(Nc4ccc(Sc5nccn5C)c(Cl)c4)c(C#N)cnc3cc2cc1OCCN1CCOCC1 [Example 149]
